These are literature values, as cited in patent US20040115233A1, “Composition for improving skin environment and clothes thereof” (priority 2001, published 2004).

The test system of data set [1] is microorganisms. The settings on record: among components of tea tree oil.
Data set [2] has as its system patients with atopic diseases.

Consider `Cc1ccc(C(C)C)cc1` [paracimene], for which, in data set [1], the antibacterial action entry is “some antibacterial actions”.

With `CC1=CC=C(C(C)C)CC1` [α-terpinene], the antibacterial action entry in data set [1] is recorded as “some antibacterial actions”.

Regarding `CC1=CCC(C(C)(C)O)CC1` (stereo not drawn) [α-terpineol], in data set [1], the antibacterial action entry is listed as “some antibacterial actions”.

On to `CCCCCC=CCC=CCC=CCCCCC(=O)O` [γ-linolenic acid, 6,9,12-octadecatrienic acid], for which the alleviating itching entry in data set [2] (patients with mild to medium atopic diseases (127 children and 240 adults)) is recorded as “effective for alleviating itching”. The “serious cases in which the disease was improved” value in data set [2] (serious cases) was 116 of 179.

For the molecule `CC1=CCC(C(C)C)=CC1` [γ-terpinene], the antibacterial action entry in data set [1] is on record as “some antibacterial actions”.
